Laboratory results taken from patent publication US20240307319A1, “IONIZABLE LIPID MOLECULE, PREPARATION METHOD THEREFOR, AND APPLICATION THEREOF IN PREPARATION OF LIPID NANOPARTICLE” (IMMORNA (HANGZHOU) BIOTECHNOLOGY CO., LTD., priority 2021, published 2024).

Tested on: BHK cells
Assay: Protein in vitro expression ability of eGFP mRNA lipid nanoparticle compositions in BHK cells by flow cytometer
Format: cell-based
Settings: 24-hour co-incubation, MC3 LNP without mRNA set as 0; for Fluorescent protein expression rate (0.1 μg): 0.1 μg LNP composition with eGFP mRNA; for Fluorescent protein expression rate (0.5 μg): 0.5 μg LNP composition with eGFP mRNA
Experimental: BHK cells were from ATCC and maintained at 37° C. under 5% CO2 in Dulbecco's modified Eagle medium (HyClone) supplemented with 10% fetal bovine serum (HyClone). 0.1 μg or 0.5 μg of the lipid nanoparticle composition prepared by the ionizable lipid compound of the invention or the commercial MC3 nanoparticle composition was co-incubated with the BHK cells to deliver the mRNA nucleic acid encoding the enhanced green fluorescent protein contained therein into the BHK cells to express the corresponding protein. After 24-hour co-incubation, the cells were digested with trypsin and collected, and signal intensity of intracellular green fluorescent protein was collected using a flow cytometer. Analysis of relative protein expression rates was performed using a cell group to which the commercial MC3 nanoparticle composition not containing mRNA encoding enhanced green fluorescent protein was added as a control.
The fluorescence intensity obtained after the commercial MC3 nanoparticle composition not containing mRNA encoding enhanced green fluorescent protein was co-incubated with cells is set as the base point, with the green fluorescent protein expression rate being 0.

Structure (SMILES) | Fluorescent protein expression rate (0.1 μg) | Fluorescent protein expression rate (0.5 μg)
CCCCCCCCCOC(=O)CCCCCCCOc1ccc(OCCCCCCCC(=O)OCCCCCCCCC)c(COC(=O)CCCN(C)C)c1 [Compound I] | 82.60% | 93.51%
CCCCC/C=C\C/C=C\CCCCCCCCC(CCCCCCCC/C=C\C/C=C\CCCCC)OC(=O)CCCN(C)C [MC3, Dlin-MC3-DMA] | 95.87% | 99.99%
